# Assay results as given in patent US10016379B2, “Method of treatment for third spacing” (priority 2015, dated 2018).
# How the values were obtained:
# [1] = system: third spacing of fluid refractory to sulfa/sulfonamide; experiment: Example 2: patient case, sulfa/sulfonamide compound stopped and patient placed on ethacrynic acid; type: in vivo; conditions: one patient; in one month; ethacrynic acid for a short period while stopping the sulfa/sulfonamide compound
# Source text: A patient who suffered from a mental impairment but knew they were allergic to sulfa/sulfonamide compounds (their blood pressure fell), had clinical evidence of edema even though the patient was on a potent sulfa/sulfonamide medication. The patient was placed on ethacrynic acid for a short period of time while stopping the sulfa/sulfonamide compound and in one month, 40 pounds of fluid was removed. In this case, the patient not only had clinical evidence of edema, they also had third spacing of fluid refractory to sulfa/sulfonamide they were on. Unfortunately the patient was lost to follow up.
# [2] = system: patient's asthma, fluid retention, fatigue, weight loss and photo dermatitis; experiment: Example 1: patient case, furosemide stopped and replaced with ethacrynic acid; type: in vivo; conditions: one patient
# Source text: In this case it is thought that decreasing the medications for allergies the patient was on may have contributed to the unmasking of an allergy to one of the components in the trade name compound.
structure (smiles),measurement,setting,value
C=C(CC)C(=O)c1ccc(OCC(=O)O)c(Cl)c1Cl [ethacrynic acid],fluid removed,[1],40 pounds
same,laboratory studies,[2]; after replacing furosemide with ethacrynic acid,resolution of pyuria
same,"asthma, fluid retention, fatigue, weight loss and photo dermatitis",[2]; after stopping furosemide and replacing it with ethacrynic acid,improve within one weeks-time
same,"use of other medications for asthma, myalgia, dyspepsia and other symptoms",[2]; during ethacrynic acid treatment,less use or even elimination of other medications
same,tolerability (reason the patient could not continue the medication),[2]; trade name compound,adverse reaction to one of the constituents in the trade name compound
